From patent US7579342B2, “Pteridine compounds for the treatment of psoriasis” (AstraZeneca, priority 2000, dated 2009)

SMILES	melting point [°C]
O=c1cnc2c(NC(CO)CO)nc(SCc3cccc(Cl)c3F)nc2[nH]1 [Example 8, 2-[[(3-Chloro-2-fluorophenyl)methyl]thio]-4-[[2-hydroxy-1-(hydroxymethyl)ethyl]amino]-7(8H)-pteridinone]	218.5 to 220.5
C[C@H](CO)Nc1nc(SCc2cccc(Cl)c2F)nc2[nH]c(=O)cnc12 [Example 6, 2-[[(3-Chloro-2-fluorophenyl)methyl]thio]-4-[[(1R)-2-hydroxy-1-methylethyl]amino]-7(8H)-pteridinone]	209 to 211
Cc1ccc(CSc2nc(N[C@H](C)CO)c3ncc(=O)[nH]c3n2)o1 [Example 24, 4-[[(1R)-2-Hydroxy-1-methylethyl]amino]-2-[[(5-methyl-2-furanyl)methyl]thio]-7(8H)-pteridinone]	197 to 199
C[C@H](CO)Nc1nc(SCc2ccccc2F)nc2[nH]c(=O)cnc12 [Example 25, 2-[[(2-Fluorophenyl)methyl]thio]-4-[[(1R)-2-hydroxy-1-methylethyl]amino]-7(8H)-pteridinone]	203 to 205
C[C@H](CO)Nc1nc(SCc2cccs2)nc2[nH]c(=O)cnc12 [Example 26, 4-[[(1R)-2-Hydroxy-1-methylethyl]amino]-2-[[(2-thienyl)methyl)thio]-7(8H)-pteridinone]	209 to 212
O=c1cnc2c(NC(CO)CO)nc(SCc3cccc(C(F)(F)F)c3F)nc2[nH]1 [Example 31, 2-[[(2-Fluoro-3-(trifluoromethyl)phenyl)methyl]thio]-4-[[2-hydroxy-1-(hydroxymethyl)ethyl]amino]-7(8H)-pteridinone]	244 to 245
C[C@H](CO)Nc1nc(SCc2cccc(C(F)(F)F)c2F)nc2[nH]c(=O)cnc12 [Example 30, 2-[[(2-Fluoro-3-(trifluoromethyl)phenyl)methyl]thio]-4-[[(1R)-2-hydroxy-1-methylethyl]amino]-7(8H)-pteridinone]	217 to 219
O=c1cnc2c(NCCO)nc(SCc3cccc(C(F)(F)F)c3F)nc2[nH]1 [Example 32, 2-[[(2-Fluoro-3-(trifluoromethyl)phenyl)methyl]thio]-4-[(2-hydroxyethyl)amino]-7(8H)-pteridinone]	221 to 222
O=c1cnc2c(NCCO)nc(SCc3cccc(Cl)c3F)nc2[nH]1 [Example 7, 2-[[(3-Chloro-2-fluorophenyl)methyl]thio]-4-[(2-hydroxyethyl)amino]-7(8H)-pteridinone]	195 to 196.5
C[C@H](CO)Nc1nc(SCc2ccno2)nc2[nH]c(=O)cnc12 [Example 22, 4-[[(1R)-2-Hydroxy-1-methylethyl]amino]-2-[(5-isoxazolylmethyl)thio]-7(8H)-pteridinone]	191 to 194
O=c1cnc2c(NC(CO)CO)nc(SCc3cccs3)nc2[nH]1 [Example 28, 4-[[-2-Hydroxy-1-(hydroxymethyl)ethyl]amino]-2-[(2-thienylmethyl)thio]-7(8H)-pteridinone]	220 to 223
COc1ccc(CSc2nc(NC(CO)CO)c3ncc(=O)[nH]c3n2)cc1Cl [Example 11, 2-[[(3-Chloro-4-methoxyphenyl)methyl]thio]-4-[[2-hydroxy-1-(hydroxymethyl)ethyl]amino]-7(8H)-pteridinone]	209 to 211
